Data reported in the NIST ThermoML archive (doi:10.1021/je049595u).

Experiment: molar heat capacity at saturation pressure
Settings: Vacuum adiabatic calorimetry

Cc1cccc2cccnc12 [8-methylquinoline]
molar heat capacity [J/K/mol]
Settings | Crystal | Liquid
5 K | 0.45 | –
6.105 K | 0.81 | –
7.027 K | 1.26 | –
8.004 K | 1.86 | –
9.004 K | 2.64 | –
10 K | 3.53 | –
10.06 K | 3.58 | –
11.21 K | 4.73 | –
12.47 K | 6.05 | –
13.87 K | 7.66 | –
15.42 K | 9.47 | –
17.14 K | 11.51 | –
19.04 K | 13.71 | –
20 K | 14.8 | –
21.13 K | 16.07 | –
23.44 K | 18.64 | –
25.98 K | 21.32 | –
28.81 K | 24.19 | –
30 K | 25.37 | –
31.94 K | 27.23 | –
35.44 K | 30.44 | –
39.36 K | 33.85 | –
40 K | 34.39 | –
43.73 K | 37.46 | –
48.59 K | 41.21 | –
50 K | 42.28 | –
52.43 K | 44.08 | –
53.97 K | 45.21 | –
57.17 K | 47.47 | –
59.94 K | 49.35 | –
60 K | 49.4 | –
62.72 K | 51.23 | –
69 K | 55.27 | –
70 K | 55.87 | –
75.99 K | 59.46 | –
80 K | 61.81 | –
83.66 K | 63.9 | –
86.44 K | 65.46 | –
90 K | 67.47 | –
91.89 K | 68.5 | –
94.09 K | 69.68 | –
100 K | 72.87 | –
100.75 K | 73.28 | –
103.06 K | 74.5 | –
112.71 K | 79.57 | –
120 K | 83.32 | –
123.65 K | 85.25 | –
135.63 K | 91.49 | –
140 K | 93.7 | –
147.53 K | 97.64 | –
160 K | 104.11 | –
160.44 K | 104.42 | –
170 K | – | 184.91
174.36 K | 111.83 | –
175.64 K | 112.44 | –
175.79 K | – | 185.73
180 K | 114.69 | 186.36
181.22 K | – | 186.55
186.72 K | – | 187.58
186.91 K | 118.52 | –
188.79 K | 119.55 | –
199.75 K | 125.65 | –
200 K | 125.52 | 190.48
203.2 K | 127.63 | –
212.46 K | 132.96 | –
215.19 K | 134.54 | –
220 K | 136.62 | 195.81
224.46 K | 140.5 | –
225.29 K | 140.97 | –
232.54 K | – | 199.61
235.37 K | 150.91 | –
238.7 K | – | 201.71
240 K | 147.98 | 202.12
245.88 K | – | 204
246.94 K | 151.99 | 204.38
253.58 K | – | 206.7
253.72 K | – | 206.81
254.07 K | – | 206.89
256.36 K | – | 207.75
257.67 K | – | 208.16
260 K | – | 208.99
265.24 K | – | 210.84
